“Also recorded” adds a separate entry of the source.
Legend:
[1] = system: Drosophila HD model; test: Early dosing of carbenoxolone in Drosophila HD model (lifespan, motor control); type: in vivo
[2] = system: HD model strain mice; test: Rotarod assay in HD model strain mice; type: in vivo, mouse; details: treated from 4 weeks, tested at 8 weeks of age, vs untreated HD mice
From the text: Mouse strains: Mouse strain names provided herein adhere to the Guidelines for Nomenclature of Mouse and Rat Strains, Revised October 2011, International Committee on Standardized Genetic Nomenclature for Mice, accessible at www.informatics.jax.org/mgihome/nomen/strains.shtml. Official gene symbols, or, where appropriate, official mouse strain names of the Jackson Laboratory (www.jax.org, e.g., the Jackson Laboratory Mice Database at jaxmice.jax.org) are used. […]
Rotarod assay: Mice are habituated to balancing on a slowly rotating rotarod (5 rpm). […] The time to fall off the rod, onto a platform located ˜30 cm below the rod, is measured. The increase in latency to fall during the course of training is compared between four groups of mice for each candidate compound to be evaluated (Mutant+candidate, mutant no candidate, wild type+candidate, wild type no candidate). […]
At 8 weeks of age, motor and cognitive performance are tested in rotarod and water maze assays. Untreated mice are expected to show a significant impairment of motor and cognitive capabilities at 8 weeks of age, as measured by a shortened latency to fall in the rotarod assay, and a lengthened latency to escape in the water maze assy, respectively, as compared to wid type control mice.

[3] = system: subject having or suspected of having the polyQ tract expansion disease HD; test: Oral carbenoxolone in subjects having or suspected of having HD; type: in vivo, human; details: about 100-700 mg/day
Method: The carbenoxolone is administered orally in tablet form, for example, as carbenoxolone disodium salt. The dosage is within the range of about 100-700 mg/day, for example at about 150 mg/day, about 300 mg/day, or about 600 mg/day. […] Such monitoring includes measuring cognitive and motor function in the subject, and/or determining whether a slowing or reversal of a personality change commonly associated with HD is observable. In some instances, the monitoring includes measuring the aggregation of Htt protein, the number or size of inclusion bodies, and/or brain tissue homeostasis (e.g. detection of improved survival of neuronal cells and/or reduction in astrocytes). […] After a period of time sufficient for a desired change, e.g. an amelioration in an HD symptom, to manifest, the subject is then monitored for such a change. For example, the subject, in some embodiments, is monitored for cognitive function, for example, within a time frame of about a week to about 6 months (e.g., about one month or about two months) after administration is commenced. […] For example, in some embodiments, the dose may be increased from about 150 mg/day to about 300 mg/day. In some embodiments, the subject is monitored again for symptoms after dose adjustment and, if the symptoms persist at the same severity level, the dose is increased further. […]

[4] = system: subject carrying a polyQ tract expansion mutation in the Huntingtin gene; test: Carbenoxolone in pre-symptomatic HD patients; type: in vivo, human; details: administered before clinical symptoms manifest, from about 150 mg/day
Method: After a period of time sufficient for a change in a cortisol level to manifest, e.g. after about a week, about two weeks, about three weeks, or about a month, the cortisol level in the subject is measured. […] For example, in some embodiments, the dose may be increased from about 150 mg/day to about 300 mg/day. In some embodiments, the cortisol level in the subject is measured again after dose adjustment and, if the cortisol level remains elevated, the dose is increased further. For example, in some embodiments, the dose may be increased from about 300 mg/day to about 450 mg/day. In some embodiments, multiple cycles of dose adjustment and cortisol level measurement are performed until a desired cortisol level is observed in the subject, for example, a blood plasma cortisol level within the range of 70-700 nmol/l or 70-350 nmol/l. For example, in some embodiments, the dose may be increased from about 150 mg/day to about 300 mg/day in a first dose adjustment, then to about 450 mg/day, then to about 500 mg/day, then to about 600 mg/day. […] In some cases, the dosage may be decreased below 150 mg/day, particularly, where a desired reduction in a cortisol level is still observed with lower doses. […]

`CC1(C)[C@@H](OC(=O)CCC(=O)O)CC[C@]2(C)[C@H]3C(=O)C=C4[C@@H]5C[C@@](C)(C(=O)O)CC[C@]5(C)CC[C@@]4(C)[C@]3(C)CC[C@@H]12` [Carbenoxolone] was tested, and the “Motor control / chorea (defective motor coordination)” value ([1]; Drosophila HD model) was “improves motor control; also recorded: improves chorea”, the “Drosophila HD model lifespan” value ([1]; early dosing) was “extends Drosophila HD model lifespan” and the “Impairment of motor capabilities (latency to fall, rotarod)” value [2] was “lesser degree of impairment”. For the same molecule, the “HD symptoms (cognition, motor function, personality change)” value [3] was “improvement of at least some HD symptoms” and the “Onset and severity of HD symptoms” value [4] was “prevention or delay of the onset, and/or an amelioration of the severity of at least one HD symptom”.

— patent US20130303562A1, “CHEMICAL AND RNAI SUPPRESSORS OF NEUROTOXICITY IN HUNTINGTON'S DISEASE” (priority 2010, published 2013)
